# Measurements from patent US9957267B2, “Somatostatin modulators and uses thereof” (Crinetics Pharmaceuticals, Inc., priority 2015, dated 2018).
# Assays:
# Format in all cases: cell-based
# [1] = target: T1, human somatostatin receptor subtype 2a (Homo sapiens, UniProt P30874); assay: cAMP assay for SSTR2a agonists (HTRF cAMP kit, NKH-477 stimulated); conditions: CHO cells stably expressing human SSTR2a, 1.6 μM NKH-477
# T1 construct: expressed in transfected cells
# Procedure: (§1) Chinese hamster ovary (CHO) cells stably expressing one of the six human or rodent somatostatin receptor subtypes are grown to 85-100% confluence on standard tissue culture dishes in F12-Ham's growth media (Hyclone) with following additives: 10% donor calf serum (Hyclone), 200 U/mL penicillin (Hyclone), 200 μg/mL streptomycin (Hyclone), 20 mM HEPES (Hyclone), 200 μg/mL hygromycin Hyclone.
# (§2) General overview: All SSTR subtypes are Gi coupled G-protein coupled receptors (GPCRs) that lead to decreases in intracellular cyclic AMP (cAMP) when activated by an agonist. Therefore, measurement of intracellular cAMP levels can be used to assess whether compounds of the invention are agonists of SSTR subtypes (John Kelly, Troy Stevens, W. Joseph Thompson, and Roland Seifert, Current Protocols in Pharmacology, 2005, 2.2.1-2.2). One example of an intracellular cAMP assay is described below.
# Four days prior to the assay, 5000 Chinese hamster ovary (CHO) cells stably expressing the human somatostatin receptor subtype 2a are plated in each well of a 96-well tissue culture plate (Nest Biotech Cell, flat bottom with low evaporation tissue culture treated; Polystyrene; Non-Pyrogenic) in F12-Ham's media (100 μL/well) supplemented with 200 μg/mL of hygromycin. Incubate at 37 C, 5% CO2, 95% humidity for four days. The cells should reach full confluence. On the day of the assay, various dilutions of the compounds of the invention are prepared in assay buffer (HRTF cAMP kit, Cisbio) in the presence of 1.6 μM NKH-477 (a water-soluble forskolin derivative) and 50 μL of the dilutions are added to the cultured cells and incubated for 20 minutes at 37° C. […] 50 μL of lysis buffer (HRTF cAMP kit, Cisbio) is added to each well and incubated at room temperature for 30 minutes, after which 150 μL assay buffer is added to each well. In a 384-well plate (Grenier, 784-080), 10 μL of assay mixture is added to 10 μL of developing mixture, containing cAMP detection and visualization antibodies are added and the assay is allowed incubate for 1-24 hours at room temperature. The intracellular cAMP concentrations are then measured using a commercially available detection kit (for example, the cAMP HTRF kit, Cisbio). The measured intracellular cAMP concentrations are plotted vs. the concentration of the compounds of the invention and the EC50 of the compounds are calculated using standard methods.
# SSTR3 = SSTR3 (UniProt P32745); assay: cAMP functional agonist assay, CHO cells expressing SSTR3; conditions: CHO cells stably expressing SSTR3, cAMP
# SSTR3, sequence (P32745 whole entry): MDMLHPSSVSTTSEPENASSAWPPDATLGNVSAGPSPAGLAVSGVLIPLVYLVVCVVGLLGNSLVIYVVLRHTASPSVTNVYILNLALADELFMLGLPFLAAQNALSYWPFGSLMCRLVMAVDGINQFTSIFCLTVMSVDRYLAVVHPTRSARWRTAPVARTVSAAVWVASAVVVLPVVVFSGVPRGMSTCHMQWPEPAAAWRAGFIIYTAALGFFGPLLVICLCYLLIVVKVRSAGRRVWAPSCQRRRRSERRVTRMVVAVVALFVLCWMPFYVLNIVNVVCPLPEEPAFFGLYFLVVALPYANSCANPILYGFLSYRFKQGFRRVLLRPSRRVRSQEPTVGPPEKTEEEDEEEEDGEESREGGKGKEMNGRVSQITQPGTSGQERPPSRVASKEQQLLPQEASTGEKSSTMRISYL
# Procedure: as §1, §2
# SSTR1 = target: T2, SSTR1 (Homo sapiens, UniProt P30872); assay: cAMP functional agonist assay, CHO cells expressing SSTR1; conditions: CHO cells stably expressing SSTR1, cAMP; read-out: SSTR1 EC50
# T2 construct: expressed in transfected cells
# T2 sequence (P30872 whole entry): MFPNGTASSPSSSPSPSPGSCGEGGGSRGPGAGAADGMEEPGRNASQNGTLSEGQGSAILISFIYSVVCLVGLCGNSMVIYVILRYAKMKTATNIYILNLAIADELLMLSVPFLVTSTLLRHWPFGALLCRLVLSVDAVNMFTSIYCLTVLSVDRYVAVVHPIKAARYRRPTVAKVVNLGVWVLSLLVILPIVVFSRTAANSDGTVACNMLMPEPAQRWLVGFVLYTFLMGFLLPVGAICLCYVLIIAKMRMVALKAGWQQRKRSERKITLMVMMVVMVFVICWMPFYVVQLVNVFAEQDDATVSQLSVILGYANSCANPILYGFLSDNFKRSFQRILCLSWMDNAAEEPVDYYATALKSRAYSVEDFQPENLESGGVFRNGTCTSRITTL
# Procedure: as §1
# (§3) General overview: All SSTR subtypes are Gi coupled G-protein coupled receptors (GPCRs) that lead to decreases in intracellular cyclic AMP (cAMP) when activated by an agonist. […] One example of an intracellular cAMP assay is described below.
# SSTR5 = target: T3, SSTR5 (Homo sapiens, UniProt P35346); assay: cAMP functional agonist assay, CHO cells expressing SSTR5; conditions: CHO cells stably expressing SSTR5, cAMP
# T3 construct: expressed in transfected cells
# T3 sequence (P35346 whole entry): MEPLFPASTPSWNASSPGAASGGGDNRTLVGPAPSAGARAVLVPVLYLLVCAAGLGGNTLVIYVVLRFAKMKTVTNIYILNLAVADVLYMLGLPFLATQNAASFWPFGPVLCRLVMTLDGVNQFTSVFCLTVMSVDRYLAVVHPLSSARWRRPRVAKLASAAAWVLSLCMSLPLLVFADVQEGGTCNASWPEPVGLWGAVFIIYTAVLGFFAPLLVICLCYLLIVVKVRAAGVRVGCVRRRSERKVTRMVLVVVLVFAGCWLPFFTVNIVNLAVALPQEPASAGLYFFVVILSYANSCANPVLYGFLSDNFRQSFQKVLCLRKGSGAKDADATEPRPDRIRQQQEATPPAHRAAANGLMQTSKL
# Procedure: as §1, §2
# SSTR4 = target: T4, SSTR4 (Homo sapiens, UniProt P31391); assay: cAMP functional agonist assay, CHO cells expressing SSTR4; conditions: CHO cells stably expressing SSTR4, cAMP; read-out: SSTR4 EC50
# T4 construct: expressed in transfected cells
# T4 sequence (P31391 whole entry): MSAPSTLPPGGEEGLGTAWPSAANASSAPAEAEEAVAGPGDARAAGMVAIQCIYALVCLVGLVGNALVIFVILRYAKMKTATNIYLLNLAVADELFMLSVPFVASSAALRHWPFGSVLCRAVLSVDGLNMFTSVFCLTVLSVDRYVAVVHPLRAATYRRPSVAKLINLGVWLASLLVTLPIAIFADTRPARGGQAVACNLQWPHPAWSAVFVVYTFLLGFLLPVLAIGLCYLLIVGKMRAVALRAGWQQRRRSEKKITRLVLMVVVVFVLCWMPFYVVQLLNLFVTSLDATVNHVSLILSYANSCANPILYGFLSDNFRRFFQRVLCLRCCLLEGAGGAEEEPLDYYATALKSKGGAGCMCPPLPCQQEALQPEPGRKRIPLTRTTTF
# Procedure: as §1, §3
# T1 sequence (P30874 whole entry): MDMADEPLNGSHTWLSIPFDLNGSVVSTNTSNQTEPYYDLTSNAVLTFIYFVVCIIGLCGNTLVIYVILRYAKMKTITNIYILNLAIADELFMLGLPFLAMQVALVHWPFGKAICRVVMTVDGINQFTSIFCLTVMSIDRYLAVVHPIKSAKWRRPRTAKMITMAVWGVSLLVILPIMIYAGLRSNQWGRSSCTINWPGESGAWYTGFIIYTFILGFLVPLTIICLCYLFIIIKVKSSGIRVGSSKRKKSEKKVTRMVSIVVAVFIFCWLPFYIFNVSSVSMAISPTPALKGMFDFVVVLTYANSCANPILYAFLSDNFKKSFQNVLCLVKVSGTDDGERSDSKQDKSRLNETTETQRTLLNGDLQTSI
EC50 [1],EC50 (SSTR3),EC50 (SSTR1),EC50 (SSTR5),EC50 (SSTR4),Compound
< 0.1 µM,< 0.1 µM,0.1 to 10 µM,0.1 to 10 µM,< 0.1 µM,"CCc1nc2ncc(-c3cc(C)cc(Cl)c3)c(CN(C)C[C@@H]3CCCN3)c2c(=O)n1-c1cccc(O)c1 [Compound A-57, 6-(3-chloro-5-methylphenyl)-2-ethyl-3-(3-hydroxyphenyl)-5-({methyl[(2S)-pyrrolidin-2-ylmethyl]amino}methyl)-3H,4H-pyrido[2,3-d]pyrimidin-4-one]"
0.1 to 10 µM,> 10 µM,> 10 µM,> 10 µM,0.1 to 10 µM,CCOC(=O)CNCCN(CC)Cc1c(-c2cc(C)cc(C)c2)cnc2ncn(-c3cccc(O)c3)c(=O)c12 [Compound A-68]
< 0.1 µM,0.1 to 10 µM,> 10 µM,–,< 0.1 µM,"CC[C@H](N)CN(C)Cc1c(-c2cc(C)cc(Cl)c2)cnc2ncn(-c3cc(O)cc(F)c3)c(=O)c12 [Compound A-66, 5-({[(2S)-2-aminobutyl](methyl)amino}methyl)-6-(3-chloro-5-methylphenyl)-3-(3-fluoro-5-hydroxyphenyl)-3H,4H-pyrido[2,3-d]pyrimidin-4-one]"
< 0.1 µM,0.1 to 10 µM,> 10 µM,0.1 to 10 µM,< 0.1 µM,"Cc1cc(C)cc(-c2cnc3nc(C)n(-c4cc(O)cc(F)c4)c(=O)c3c2CN(C)C[C@@H]2CCCN2)c1 [Compound A-55, 6-(3,5-dimethylphenyl)-3-(3-fluoro-5-hydroxyphenyl)-2-methyl-5-({methyl[(2S)-pyrrolidin-2-ylmethyl]amino}methyl)-3H,4H-pyrido[2,3-d]pyrimidin-4-one]"
< 0.1 µM,0.1 to 10 µM,0.1 to 10 µM,0.1 to 10 µM,< 0.1 µM,"CCCN(CCN)Cc1c(-c2cc(C)cc(C)c2)cnc2ncn(-c3cccc(O)c3)c(=O)c12 [Compound A-4, 5-{[(2-aminoethyl)(propyl)amino]methyl}-6-(3,5-dimethylphenyl)-3-(3-hydroxyphenyl)-3H,4H-pyrido[2,3-d]pyrimidin-4-one]"
< 0.1 µM,< 0.1 µM,0.1 to 10 µM,> 10 µM,< 0.1 µM,"Cc1cccc(-c2cnc3ncn(-c4cccc(O)c4)c(=O)c3c2CN(C)CC2CCCCN2)c1 (stereo not shown) [Compound A-21, 3-(3-hydroxyphenyl)-5-{[methyl(piperidin-2-ylmethyl)amino]methyl}-6-(3-methylphenyl)-3H,4H-pyrido[2,3-d]pyrimidin-4-one]"
< 0.1 µM,0.1 to 10 µM,0.1 to 10 µM,> 10 µM,< 0.1 µM,"Cc1cc(Cl)cc(-c2cnc3ncn(-c4cc(F)cc(C(N)=O)c4)c(=O)c3c2CN(C)C[C@@H]2CCCN2)c1 [Compound A-50, 3-[6-(3-chloro-5-methylphenyl)-5-({methyl[(2S)-pyrrolidin-2-ylmethyl]amino}methyl)-4-oxo-3H,4H-pyrido[2,3-d]pyrimidin-3-yl]-5-fluorobenzamide]"
< 0.1 µM,0.1 to 10 µM,> 10 µM,–,< 0.1 µM,"CCN(CCN)Cc1c(-c2cc(C)cc(Cl)c2)cnc2ncn(-c3cc(O)cc(F)c3)c(=O)c12 [Compound A-3, 5-(((2-aminoethyl)(ethyl)amino)methyl)-6-(3-chloro-5-methylphenyl)-3-(3-fluoro-5-hydroxyphenyl)pyrido[2,3-d]pyrimidin-4(3H)-one]"
< 0.1 µM,< 0.1 µM,0.1 to 10 µM,0.1 to 10 µM,< 0.1 µM,"Cc1cc(C)c(F)c(-c2cnc3ncn(-c4cccc(O)c4)c(=O)c3c2CN(C)CC2CCCCN2)c1 (stereo not shown) [Compound A-70, 6-(2-Fluoro-3,5-dimethyl-phenyl)-3-(3-hydroxy-phenyl)-5-[(methyl-piperidin-2-ylmethyl-amino)-methyl]-3H-pyrido[2,3-d]pyrimidin-4-one]"
< 0.1 µM,< 0.1 µM,0.1 to 10 µM,0.1 to 10 µM,< 0.1 µM,"CC[C@H](N)CN(C)Cc1c(-c2cc(C)cc(C)c2)cnc2ncn(-c3cc(O)cc(F)c3)c(=O)c12 [Compound A-62, 5-({[(2S)-2-aminobutyl](methyl)amino}methyl)-6-(3,5-dimethylphenyl)-3-(3-fluoro-5-hydroxyphenyl)-3H,4H-pyrido[2,3-d]pyrimidin-4-one]"
< 0.1 µM,< 0.1 µM,0.1 to 10 µM,> 10 µM,< 0.1 µM,"Cc1cc(Cl)cc(-c2cnc3ncn(-c4cc(O)cc(Cl)c4)c(=O)c3c2CN(C)C[C@@H]2CCCN2)c1 [Compound A-49, 3-(3-chloro-5-hydroxyphenyl)-6-(3-chloro-5-methylphenyl)-5-({methyl[(2S)-pyrrolidin-2-ylmethyl]amino}methyl)-3H,4H-pyrido[2,3-d]pyrimidin-4-one]"
< 0.1 µM,< 0.1 µM,0.1 to 10 µM,> 10 µM,< 0.1 µM,"5-({[(2S)-2-aminobutyl](methyl)amino}methyl)-6-(3,5-dimethylphenyl)-3-[3-hydroxy-5-(trifluoromethyl)phenyl]-3H,4H-pyrido[2,3-d]pyrimidin-4-one [Compound A-63]"
< 0.1 µM,< 0.1 µM,0.1 to 10 µM,–,< 0.1 µM,"Cc1cc(Cl)cc(-c2cnc3nc(C)n(-c4cc(F)cc(C#N)c4)c(=O)c3c2CN(C)C[C@@H]2CCCN2)c1 [Compound A-60, 3-[6-(3-chloro-5-methylphenyl)-2-methyl-5-({methyl[(2S)-pyrrolidin-2-ylmethyl]amino}methyl)-4-oxo-3H,4H-pyrido[2,3-d]pyrimidin-3-yl]-5-fluorobenzonitrile]"
< 0.1 µM,< 0.1 µM,0.1 to 10 µM,–,< 0.1 µM,"Cc1cc(F)cc(-c2cnc3ncn(-c4cccc(O)c4)c(=O)c3c2CN(C)CC2CCCCN2)c1 (stereo not shown) [Compound A-25, 6-(3-fluoro-5-methylphenyl)-3-(3-hydroxyphenyl)-5-{[methyl(piperidin-2-ylmethyl)amino]methyl}-3H,4H-pyrido[2,3-d]pyrimidin-4-one]"
< 0.1 µM,< 0.1 µM,0.1 to 10 µM,–,< 0.1 µM,"Cc1cc(Cl)cc(-c2cnc3ncn(-c4cccc(O)c4)c(=O)c3c2CN(C)C[C@@H]2CCCCN2)c1 [Compound A-29, 6-(3-chloro-5-methylphenyl)-3-(3-hydroxyphenyl)-5-({methyl[(2S)-piperidin-2-ylmethyl]amino}methyl)-3H,4H-pyrido[2,3-d]pyrimidin-4-one]"
< 0.1 µM,< 0.1 µM,0.1 to 10 µM,–,< 0.1 µM,"CCN(Cc1c(-c2cc(C)cc(C)c2)cnc2ncn(-c3cccc(O)c3)c(=O)c12)C[C@H](C)N [Compound A-9, 5-({[(2S)-2-aminopropyl](ethyl)amino}methyl)-6-(3,5-dimethylphenyl)-3-(3-hydroxyphenyl)-3H,4H-pyrido[2,3-d]pyrimidin-4-one]"
0.1 to 10 µM,0.1 to 10 µM,–,> 10 µM,< 0.1 µM,"Cc1ccccc1-c1cnc2ncn(-c3cccc(O)c3)c(=O)c2c1CN(C)CC1CCCCN1 (stereo not shown) [Compound A-20, 3-(3-hydroxyphenyl)-5-{[methyl(piperidin-2-ylmethyl)amino]methyl}-6-(2-methylphenyl)-3H,4H-pyrido[2,3-d]pyrimidin-4-one]"
< 0.1 µM,< 0.1 µM,0.1 to 10 µM,–,< 0.1 µM,"CN(Cc1c(-c2cccc(Cl)c2)cnc2ncn(-c3cccc(O)c3)c(=O)c12)CC1CCCCN1 (stereo not shown) [Compound A-24, 6-(3-chlorophenyl)-3-(3-hydroxyphenyl)-5-{[methyl(piperidin-2-ylmethyl)amino]methyl}-3H,4H-pyrido[2,3-d]pyrimidin-4-one]"
